Patent US20120095055A1, “HEXAHYDROCYCLOPENTYL[f]INDAZOLE 5-HYDROXYMETHYL ETHANOLS AND DERIVATIVES THEREOF AS SELECTIVE GLUCOCORTICOID RECEPTOR MODULATORS” (Merck Sharp & Dohme, Corp., priority 2009, published 2012)
pKi: −log10 of the molar value.

Target: T1, glucocorticoid receptor (GR) (Homo sapiens, UniProt P04150)
T1 construct: endogenous in cells; host or cells: HeLa (ATCC) cell lysate supernatant
T1 sequence (P04150 1-777): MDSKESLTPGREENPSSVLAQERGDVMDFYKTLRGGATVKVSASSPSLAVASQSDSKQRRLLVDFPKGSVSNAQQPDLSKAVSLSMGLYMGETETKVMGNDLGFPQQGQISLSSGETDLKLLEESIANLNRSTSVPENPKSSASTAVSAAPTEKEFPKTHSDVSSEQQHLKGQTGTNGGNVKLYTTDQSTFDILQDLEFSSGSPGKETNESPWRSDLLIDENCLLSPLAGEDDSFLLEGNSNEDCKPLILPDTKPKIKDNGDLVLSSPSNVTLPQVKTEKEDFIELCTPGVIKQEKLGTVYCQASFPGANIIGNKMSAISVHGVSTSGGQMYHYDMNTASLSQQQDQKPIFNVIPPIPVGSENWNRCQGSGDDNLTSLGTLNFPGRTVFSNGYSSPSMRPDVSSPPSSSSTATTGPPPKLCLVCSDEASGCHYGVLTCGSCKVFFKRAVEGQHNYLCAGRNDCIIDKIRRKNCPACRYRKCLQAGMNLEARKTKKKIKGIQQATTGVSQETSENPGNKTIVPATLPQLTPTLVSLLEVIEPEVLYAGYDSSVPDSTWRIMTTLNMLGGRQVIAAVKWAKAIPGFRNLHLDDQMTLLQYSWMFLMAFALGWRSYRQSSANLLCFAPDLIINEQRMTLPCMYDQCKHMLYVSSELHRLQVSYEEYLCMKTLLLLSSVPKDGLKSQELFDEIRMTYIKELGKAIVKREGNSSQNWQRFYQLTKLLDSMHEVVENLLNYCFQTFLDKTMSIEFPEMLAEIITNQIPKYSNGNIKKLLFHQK
Assay: GR Ligand Binding Assay (3H-dexamethasone displacement, HeLa cell lysate)
Settings: 3H-DEX trace, DEX as reference, read-out: GR BIND Ki
Method: Binding Buffer: TEGM (10 mM Tris-HCl, 1 mM EDTA, 10% glycerol, 1 mM beta-mecaptoethanol, 10 mM Sodium Molybdate, pH 7.2)
Dexmethasone-methyl-^3H, (DEX*); (Amersham cat# TRK645) Dexamethasone(DEX) (Sigma, cat# D1756):
Cells (Hall R. E., et al., European Journal of Cancer, 30A: 484-490 (1994)) HeLa (ATCC) cultured in RPMI 1640 (Gibco 11835-055) containing 20 mM Hepes, 4 mM L-glu, 10 ug/ml of human insulin (Sigma, I-0259), 10% FBS and 20 ug/ml of Gentamicin (Gibco#15710-072) are rinsed twice in PBS. Phenol red-free Trypsin-EDTA is diluted in the same PBS 1:10. The cell layers are rinsed with 1× Trypsin, extra Trypsin is poured out, and the cell layers are incubated at 37° C. for ˜2 min. The flask is tapped and checked for signs of cell detachment. Once the cells begin to slide off the flask, the complete media is added. The cells are counted at this point, then diluted to the appropriate concentration and split into flasks or dishes for further culturing (Usually 1:3 to 1:6 dilution).
When the cells are 70 to 85% confluent, they are detached as described above, and collected by centrifuging at 1000 g for 10 minutes at 4° C. The cell pellet is washed twice with TEGM (10 mM Tris-HCl, 1 mM EDTA, 10% glycerol, 1 mM beta-mercaptoethanol, 10 mM Sodium Molybdate, pH 7.2). After the final wash, the cells are resuspended in TEGM at a concentration of 10^7 cells/mL. The cell suspension is snap frozen in liquid nitrogen or ethanol/dry ice bath and transferred to −80° C. freezer on dry ice. Before setting up the binding assay, the frozen samples are left on ice-water to just thaw (˜1 hr). Then the samples are centrifuged at 12,500 g to 20,000 g for 30 min at 4° C. The supernatant is used to set-up assay right away. If using 50 μL of supernatant, the test compound can be prepared in 50 μL of the TEGM buffer.
1×TEGM buffer is prepared, and the isotope-containing assay mixture is prepared in the following order: EtOH (2% final concentration in reaction), ^3H-DEX (Amersham Biosciences) and 1×TEGM. [e.g. For 100 samples, 200 μL (100×2) of EtOH+4.25 μL of 1:10 ^3H—Dex stock+2300 μL (100×23) 1×TEGM]. The compound is serially diluted, e.g., if starting final conc. is 1 μM, and the compound is in 25 μL of solution, for duplicate samples, 75 μL of 4×1 μM solution is made and 3 μL of 100 μM is added to 72 μL of buffer, and 1:5 serial dilution.
25 μL, of 3H-DEX (6 nM) trace and 25 μL compound solution are first mixed together, followed by addition of 50 μL receptor solution. The reaction is gently mixed, spun briefly at about 200 rpm and incubated at 4° C. overnight. 100 μL of 50% HAP slurry is prepared and added to the incubated reaction which is then vortexed and incubated on ice for 5 to 10 minutes. The reaction mixture is vortexed twice more to resuspend HAP while incubating reaction. The samples in 96-well format are then washed in wash buffer using The FilterMate™ Universal Harvester plate washer (Packard). The washing process transfers HAP pellet containing ligand-bound expressed receptor to Unifilter-96 GF/B filter plate (Packard). The HAP pellet on the filter plate is incubated with 50 μL of MICROSCINT (Packard) scintillint for 30 minutes before being counted on the TopCount microscintillation counter (Packard). IC50s are calculated using DEX as a reference.

Row | SMILES | pKi
1 | C[C@]12Cc3cnn(-c4ccc(F)cc4)c3C=C1CC[C@@]2(CO)CC(O)c1ccccn1 (single isomer, unassigned) [Example 1a] | 8.28
2 | C[C@]12Cc3cnn(-c4ccc(F)cc4)c3C=C1CC[C@@]2(CO)CC(O)c1ccccn1 (single isomer, unassigned) [Example 1b] | 8.40
3 | Cc1ccc(C(O)C[C@]2(CO)CCC3=Cc4c(cnn4-c4ccc(F)cc4)C[C@@]32C)cc1 (single isomer, unassigned) [Example 2a] | 8.66
4 | Cc1ccc(C(O)C[C@]2(CO)CCC3=Cc4c(cnn4-c4ccc(F)cc4)C[C@@]32C)cc1 (single isomer, unassigned) [Example 2b] | 8.68
5 | C[C@]12Cc3cnn(-c4ccc(F)cc4)c3C=C1CC[C@@]2(CO)CC(O)c1ccccc1Cl (single isomer, unassigned) [Example 3a] | 9.05
6 | C[C@]12Cc3cnn(-c4ccc(F)cc4)c3C=C1CC[C@@]2(CO)CC(O)c1ccccc1Cl (single isomer, unassigned) [Example 3b] | 9.05
7 | Cc1cccc(C(O)C[C@]2(CO)CCC3=Cc4c(cnn4-c4ccc(F)cc4)C[C@@]32C)c1 (single isomer, unassigned) [Example 5a] | 8.85
8 | Cc1cccc(C(O)C[C@]2(CO)CCC3=Cc4c(cnn4-c4ccc(F)cc4)C[C@@]32C)c1 (single isomer, unassigned) [Example 5b] | 9.05
9 | C[C@]12Cc3cnn(-c4ccc(F)cc4)c3C=C1CC[C@@]2(CO)CC(O)c1cc(F)cc(Cl)c1 (single isomer, unassigned) [Example 6a] | 8.96
10 | C[C@]12Cc3cnn(-c4ccc(F)cc4)c3C=C1CC[C@@]2(CO)CC(O)c1cc(F)cc(Cl)c1 (single isomer, unassigned) [Example 6b] | 8.89
11 | C[C@]12Cc3cnn(-c4ccc(F)cc4)c3C=C1CC[C@@]2(CO)CC(O)c1cccc(C(F)(F)F)c1 (single isomer, unassigned) [Example 7a] | 9.22
12 | C[C@]12Cc3cnn(-c4ccc(F)cc4)c3C=C1CC[C@@]2(CO)CC(O)c1cccc(C(F)(F)F)c1 (single isomer, unassigned) [Example 7b] | 9.05
13 | C[C@]12Cc3cnn(-c4ccc(F)cc4)c3C=C1CC[C@@]2(CO)CC(O)c1ncccc1F (single isomer, unassigned) [Example 10a] | 8.51
14 | C[C@]12Cc3cnn(-c4ccc(F)cc4)c3C=C1CC[C@@]2(CO)CC(O)c1ncccc1F (single isomer, unassigned) [Example 10b] | 8.74
15 | C[C@]12Cc3cnn(-c4ccc(F)cc4)c3C=C1CC[C@@]2(CO)CC1OC(=O)c2ccccc21 (single isomer, unassigned) [Example 12a] | 8.59
16 | C[C@]12Cc3cnn(-c4ccc(F)cc4)c3C=C1CC[C@@]2(CO)CC1OC(=O)c2ccccc21 (single isomer, unassigned) [Example 12b] | 8.82

Row | SMILES | pKi
17 | C[C@]12Cc3cnn(-c4ccc(F)cc4)c3C=C1CC[C@@]2(CO)CC(O)c1ccccc1 (single isomer, unassigned) [Example 13a] | 8.60
18 | C[C@]12Cc3cnn(-c4ccc(F)cc4)c3C=C1CC[C@@]2(CO)CC(O)c1ccccc1 (single isomer, unassigned) [Example 13b] | 8.72
19 | CC(C)C(O)C[C@]1(CO)CCC2=Cc3c(cnn3-c3ccc(F)cc3)C[C@@]21C (single isomer, unassigned) [Example 14a] | 8.19
20 | CC(C)C(O)C[C@]1(CO)CCC2=Cc3c(cnn3-c3ccc(F)cc3)C[C@@]21C (single isomer, unassigned) [Example 14b] | 7.85
21 | C[C@]12Cc3cnn(-c4ccc(F)cc4)c3C=C1CC[C@@]2(CO)CC(O)c1cccnc1 (single isomer, unassigned) [Example 15a] | 8.00
22 | C[C@]12Cc3cnn(-c4ccc(F)cc4)c3C=C1CC[C@@]2(CO)CC(O)c1cccnc1 (single isomer, unassigned) [Example 15b] | 8.08
23 | C[C@]12Cc3cnn(-c4ccc(F)cc4)c3C=C1CC[C@@]2(CO)CC(O)c1ccncc1 (single isomer, unassigned) [Example 17a] | 8.19
24 | C[C@]12Cc3cnn(-c4ccc(F)cc4)c3C=C1CC[C@@]2(CO)CC(O)c1ccncc1 (single isomer, unassigned) [Example 17b] | 8.12
25 | C[C@]12Cc3cnn(-c4ccc(F)cc4)c3C=C1CC[C@@]2(CO)CC(O)C1CCCCC1 (single isomer, unassigned) [Example 18a, 1-cyclohexyl-2-[(4αS)-1-(4-fluorophenyl)-5-(hydroxymethyl)-4α-methyl-1,4,4α,5,6,7-hexahydrocyclopenta[f]indazol-5-yl]ethanol] | 8.77
26 | C[C@]12Cc3cnn(-c4ccc(F)cc4)c3C=C1CC[C@@]2(CO)CC(O)C1CCCCC1 (single isomer, unassigned) [Example 18b, 1-cyclohexyl-2-[(4αS)-1-(4-fluorophenyl)-5-(hydroxymethyl)-4α-methyl-1,4,4α,5,6,7-hexahydrocyclopenta[f]indazol-5-yl]ethanol] | 8.64
27 | C[C@]12Cc3cnn(-c4cccc(F)c4)c3C=C1CC[C@@]2(CO)CC(O)c1ccccn1 (single isomer, unassigned) [Example 19a] | 8.43
28 | C[C@]12Cc3cnn(-c4cccc(F)c4)c3C=C1CC[C@@]2(CO)CC(O)c1ccccn1 (single isomer, unassigned) [Example 19b] | 8.05
29 | C[C@]12Cc3cnn(-c4ccc(F)cc4)c3C=C1CC[C@@]2(CO)CC(O)C1CC1 (single isomer, unassigned) [Example 20a, 1-cyclopropyl-2-[(4αS)-1-(4-fluorophenyl)-5-(hydroxymethyl)-4α-methyl-1,4,4α,5,6,7-hexahydrocyclopenta[f]indazol-5-yl]ethanol] | 7.65
30 | C[C@]12Cc3cnn(-c4ccc(F)cc4)c3C=C1CC[C@@]2(CO)CC(O)C1CC1 (single isomer, unassigned) [Example 20b, 1-cyclopropyl-2-[(4αS)-1-(4-fluorophenyl)-5-(hydroxymethyl)-4α-methyl-1,4,4α,5,6,7-hexahydrocyclopenta[f]indazol-5-yl]ethanol] | 7.82
31 | COc1cccnc1C(O)C[C@]1(CO)CCC2=Cc3c(cnn3-c3ccc(F)cc3)C[C@@]21C (single isomer, unassigned) [Example 21a] | 8.12
32 | COc1cccnc1C(O)C[C@]1(CO)CCC2=Cc3c(cnn3-c3ccc(F)cc3)C[C@@]21C (single isomer, unassigned) [Example 21b] | 8.43
